# Measurements reported in patent US7531567B2, “Use of a medicament containing an effector of the glutathione metabolism together with α-lipoic acid in kidney replacement therapy” (Serumwerk Bernburg AG, priority 2001, dated 2009).
# How the values were obtained:
# Type in all cases: cell-based, human
# [1] = system: peritoneal macrophages; assay: cellular thiol expression of peritoneal macrophages in kidney replacement therapy; details: time kinetics over 14 days (n=12); FIG. 4
# Description: Peritoneal macrophages were isolated from the effluate of the peritoneal dialysis of high-grade renally insufficient patients, taken up in cell culture medium and incubated in a gas incubator at 37° C., a relative humidity of 98% and 7.5% relative air-CO2 content. In order to test the influence of the combinations used according to the invention on the thiol status of the peritoneal macrophages, in each case a fraction was treated with α-lipoic acid, the effector of the glutathione metabolism ambroxole or the ACE inhibitor enalapril or with the combination of α-lipoic acid/ambroxole or α-lipoic acid/enalapril, while in each case a further fraction was used as an untreated control. The determination of the cellular thiol status was carried out by means of the measuring method described under 1. The membrane expression of thiols was determined by means of the mean fluorescence intensity (mfi) of the sample (3000 cells/measurement) after coupling to a chloromethylfluorochrome derivative. In FIG. 4, the effect of the combination of α-lipoic acid and ambroxole (FIG. 4a), and α-lipoic acid and enalapril (FIG. 4b) in the time kinetics over 14 days is shown (n=12).
# [2] = system: peritoneal macrophages; assay: membrane-bound thiol expression of peritoneal macrophages; details: FIG. 5
# Description: Peritoneal macrophages were isolated from the effluate of the peritoneal dialysis of high-grade renally insufficient patients, taken up in cell culture medium and incubated in a gas incubator at 37° C., a relative humidity of 98% and 7.5% relative air-CO2 content. In order to test the influence of the combinations used according to the invention on the thiol status of the peritoneal macrophages, in each case a fraction was treated with α-lipoic acid, the effector of the glutathione metabolism ambroxole or the ACE inhibitor enalapril or with the combination of α-lipoic acid/ambroxole or α-lipoic acid/enalapril, while in each case a further fraction was used as an untreated control. The determination of the cellular thiol status was carried out by means of the measuring method described under 1. The membrane expression of thiols was determined by means of the mean fluorescence intensity (mfi) of the sample (3000 cells/measurement) after coupling to a chloromethylfluorochrome derivative. In FIG. 5, the action of the combination of α-lipoic acid and enalapril (FIG. 5b) on the membrane-bound thiol expression of peritoneal macrophages in the experimental setup described above is presented. The membrane expression of thiols was determined by means of the mean fluorescence intensity (mfi) of the sample (3000 cells/measurement) after coupling to a chloro-methylfluorochrome derivative.
# [3] = system: peritoneal macrophages; assay: degree of differentiation and activation of peritoneal macrophages (CD15, CD11c, CD69, CD71); details: incubation for 6 days, control = 1.0, α-lipoic acid 50 μM, ambroxole 10 μM, enalapril 5 μM, captopril 10 μM
# Description: Peritoneal macrophages were isolated from patients under kidney replacement therapy according to the processes described under example 3 and cultured in the presence of the combinations of α-lipoic acid and effectors of the glutathione metabolism named according to the invention. After incubation for 6 days, the degree of differentiation of the peritoneal macrophages was determined cytofluorometrically by means of the expression of the cell surface antigens CD15 and CD11c, and the degree of cellular activation by means of the coexpression of the activation antigens CD69 on CD15-positive cells and CD71 on CD11c-positive cells.
# [4] = system: peritoneal macrophages; assay: cytokine synthesis of peritoneal macrophages (enzyme immunoassay); details: treatment period of 6 days (n=10); α-lipoic acid 50 μM, ambroxole 10 μM, enalapril 5 μM, captopril 10 μM
# Description: In parallel to this, in this experimental batch the cell culture supernatants were recovered and the cytokines interleukin-6 (IL-6) and interleukin-1 receptor antagonist (IL-1ra) contained therein, synthesized and secreted by the peritoneal macrophages, were determined.
compound,measurement,setting,value
O=C(O)CCCCC1CCSS1 (stereo not drawn) [α-lipoic acid],effect on the cellular thiol expression of peritoneal macrophages (in words),[1],increase in the cellular thiol expression
same,effect on the membrane-bound thiol expression of peritoneal macrophages (in words),[2],"very marked effect of the sole administration of α-lipoic acid is to be noted here, which, however, is cancelled out again after 4 days of treatment"
same,CD15/69,[3]; CD69 on CD15-positive cells,1.09 ± 0.08
same,CD11c/71,[3]; CD71 on CD11c-positive cells,1.08 ± 0.09
same,CD11c,[3],1.21 ± 0.11
same,CD15,[3],1.18 ± 0.16
same,IL-1ra,[4],119.8 ± 19.5 ng/10^6 cells
same,IL-6,[4],46.9 ± 6.7 ng/10^6 cells
